Source: patent US20210002725A1, “METHODS FOR THE DIAGNOSIS OF METABOLIC DISORDERS USING EPIMETABOLIC SHIFTERS, MULTIDIMENSIONAL INTRACELLULAR MOLECULES, OR ENVIRONMENTAL INFLUENCES” (Berg LLC, priority 2009, published 2021)

Experiments:
Caspase-3 = assay: Western blot of Caspase-3 in Skmel-28 melanoma cells treated with CoQ10 building block components; assay type: cell-based; settings: for Caspase-3 expression / apoptotic effect: all concentrations and time points tested
Experimental: (§1) Skmel-28 melanoma cells were cultured in DMEM/F12 supplemented with 5% Fetal Bovine Serum (FBS) and 1× final concentration of Antibiotics. The cells were grown to 85% confluency and treated with building block components for 3, 6, 12 and 24 hours. The cells were then pelleted and a Western blot analysis was performed.
(§2) In the Western Blot Analysis, the cells were pelleted in cold PBS, lysed, and the protein levels were quantified using a BCA protein assay. The whole cell lysate was loaded in a 4% loading 12% running Tris-HCl gel. The proteins were then transferred to a nitrocellulose paper then blocked with a 5% milk Tris-buffered solution for 1 hour. The proteins were then exposed to primary antibodies (Bcl-2 and Caspase-3) overnight. The nitrocellulose paper was then exposed to Pico Chemilluminescent for 5 min and the protein expression was recorded. After exposure, actin was quantified using the same method. Using ImageJ the levels of protein expression were quantified. A t-Test was used to analyze for statistical significance.

Bcl-2 = assay: Western blot of Bcl-2 in Skmel-28 melanoma cells treated with CoQ10 building block components; assay type: cell-based
Experimental: as §1, §2

[1] = tested on: neonatal fibroblast cells; assay: Cell proliferation assay (coulter counter); assay type: cell-based; settings: HB 500 nM, 5 μM, 25 μM alone and with benzoquinone 25, 50, 100 μM; 24 hours
Experimental: A cell proliferation assay was also performed on neonatal fibroblast cells. The concentrations of HB tested were 500 nM, 5 μM, and 25 μM. HB was also tested in combination with benzoquinone at a concentrations of 25 μM, 50 μM, and 100 μM. […] The cells were trypsinized and quantified using a coulter counter.

Melanoma cells = assay: Cell proliferation assay (live cell count) of building block combinations; assay type: cell-based
Experimental: Cell Proliferation Assay of the Combination of 4-Hydroxy-Benzoate with Benzoquinone: This set of experiments used a cell proliferation assay to assess the effect of combining different building block molecules on cell proliferation.
The first study examined the effect of combining 4-Hydroxy-Benzoate with Benzoquinone. Cells were incubated for 48 hours, after which a cell count was performed for the live cells. Each test group was compared to the control, and each combination groups were compared to Benzoquinone control. The compounds were statistically analyzed for the addition of Benzoquinone.
Additional studies were performed testing additional molar ratios. For the first test 4-Hydroxybenzoic were tested at concentrations of 500 nM, 1 μM, and 50 μM. These concentrations were tested in combination with 2,3-Dimethoxy-5-methyl-p-benzoquinone (Benzo). The concentration of Benzo tested were 25 μM, 50 μM, and 100 μM. Melanoma cells were grown to 80% confluency and seeded in 6 well plates at a concentration of 40K cells per well. The cells were treated with CoQ10, 4-Hydroxybenzoate, Benzo, and a combination of 4-Hydroxybenzoate/Benzo.
A T-test was performed with p<0.05 as statistically significant.

HDFa cells = assay: SeaHorse XF analyzer OCR and ECAR; assay type: cell-based, human
From the text: Environmental influencers (e.g., MIMs or Epi-shifters) may also be identified by changes in cellular energetics. One example of the measurement of cellular energetics are the real-time measures of the consumption of molecular oxygen and/or the change in pH of the media of a cell culture. For example, the ability of a potential epi-shifter to modulate the metabolic state of a cell may be analyzed using, for example, the XF24 Analyzer (Seahorse, Inc.). This technology allows for real time detection of oxygen and pH changes in a monolayer of cells in order to evaluate the bioenergetics of a cell microenvironment. The XF24 Analyzer measures and compares the rates of oxygen consumption (OCR), which is a measure of aerobic metabolism, and extracellular acidification (ECAR), which is a measure of glycolysis, both key indicators of cellular energetics.
(SeaHorse Biosciences Inc, North Billerica, Mass.).
In this experiment, the OCR and extracellular acidification rate (ECAR) in normal cells lines were obtained in the presence and absence of CoQ10 to determine baseline values. It was observed that in its native nutrient environment, the basal OCR rates in normal cells lines are different, and are usually a function of the physiological roles of the cells in the body.
For example, one set of experiments were conducted using the non-cancerous cell line HDFa, which is a human adult dermal fibroblast cell line. Fibroblasts are cells that primarily synthesize and secrete extracellular matrix (ECM) components and collagen that form the structural framework (stroma) for tissues. In addition, fibroblasts are known to serve as tissue ambassadors of numerous functions such as wound healing and localized immnomodulation. Under normal physiological conditions, energy requirements in normal fibroblasts are met using a combination of glycolysis and oxidative phosphorylation—the glycolysis providing the necessary nutrients for synthesis of ECM.
FIGS. 29 and 30 describe the OCR in HDFa and HASMC cells grown in physiologically normal glucose (about 4.6 mM) and high glucose (hyperglycemic) conditions.

tumor cells = settings: cited from earlier work
[2] = 24 hours, concentration not given
[3] = all concentrations and time points tested

NC(Cc1ccc(O)cc1)C(=O)O (racemic) [DL-Tyrosine]
Caspase-3 expression (Caspase-3; 5 μM, 12 hours): increase
Caspase-3 expression (Caspase-3; 15 μM, 12 hours): increase
Bcl-2 expression (Bcl-2; 1 μM, 12 hours): statistical decrease
Bcl-2 expression (Bcl-2; 5 μM, 24 hours): statistical decrease
Bcl-2 expression (Bcl-2; 15 μM, 12 hours): statistical decrease

COc1cc(C(=O)O)ccc1O [Vanillic acid]
Bcl-2 expression (Bcl-2; 500 nM, 24 hours): significantly reduce
Bcl-2 expression (Bcl-2; 5 μM, 24 hours): significantly reduce

N[C@H](Cc1ccc(O)cc1)C(=O)O [D-Tyrosine]
Caspase-3 expression (Caspase-3; 1 μM, 12 hours): increase
Caspase-3 expression (Caspase-3; 1 μM, 24 hours): increase
Caspase-3 expression (Caspase-3; 5 μM, 3 hours): significantly increased
Caspase-3 expression (Caspase-3; 5 μM, 12 hours): significantly increased
Caspase-3 expression (Caspase-3; 5 μM, 24 hours): significantly increased
Bcl-2 expression (Bcl-2; 5 μM, 12 hours): reduction
Bcl-2 expression (Bcl-2; 5 μM, 24 hours): reduction
Bcl-2 expression (Bcl-2; 15 μM, 12 hours): reduction
Bcl-2 expression (Bcl-2; 15 μM, 24 hours): reduction

Cc1ncc(CO)c(CO)c1O [Pyridoxine]
Bcl-2 expression (Bcl-2; [2]): significant reduction

N[C@H](Cc1ccccc1)C(=O)O [D-Phenylalanine]
Caspase-3 expression (Caspase-3; 5 μM, 6 hours): significant increase
Caspase-3 expression (Caspase-3; 100 μM, 6 hours): significant increase
Bcl-2 expression (Bcl-2; 5 μM, 3 hours): significant reduction
Bcl-2 expression (Bcl-2; 5 μM, 6 hours): significant reduction
Bcl-2 expression (Bcl-2; 25 μM, 3 hours): significant reduction
Bcl-2 expression (Bcl-2; 25 μM, 6 hours): significant reduction
Bcl-2 expression (Bcl-2; 100 μM, 6 hours): significant reduction

CC(C)(CO)[C@@H](O)C(=O)NCCCO [Panthenol]
Bcl-2 expression (Bcl-2; 25 μM, time not stated): significant reduction

COc1cc(C(O)C(=O)O)ccc1O (centres unmarked) [3-methoxy-4-hydroxymandelate]
Caspase-3 expression / apoptotic effect (Caspase-3): no statistically significant apoptotic effect
Bcl-2 expression (Bcl-2; [3]): downward trend

N[C@@H](Cc1ccc(O)cc1)C(=O)O [L-Tyrosine]
Bcl-2 expression (Bcl-2; 500 μM, 24 hours): statistically significant decrease

CC(=O)NCC(=O)O [Acetylglycine]
Bcl-2 expression (Bcl-2; 5 μM, 12 hours): significant decrease
Bcl-2 expression (Bcl-2; 25 μM, 12 hours): significant decrease
Bcl-2 expression (Bcl-2; 100 μM, 24 hours): significant decrease

O=C(O)c1ccc(O)cc1 [4-Hydroxybenzoate]
reduction in fibroblast cells [1]: did not show a significant reduction
cell number vs control (Melanoma cells; 48 hours incubation): significant decrease in cell number
cell proliferation vs control (Melanoma cells; additional molar ratios, HB 500 nM, 1 μM, 50 μM): significant decrease in cell proliferation

CC(=O)SCCNC(=O)CCNC(=O)[C@H](O)C(C)(C)COP(=O)(O)OP(=O)(O)OC[C@H]1O[C@@H](n2cnc3c(N)ncnc32)[C@H](O)[C@@H]1OP(=O)(O)O [Acetyl-CoA]
Caspase-3 expression / apoptotic effect (Caspase-3): no significant observed reduction in Bcl-2 or increase in Caspase-3 expression
Bcl-2 expression (Bcl-2; [3]): no significant observed reduction

NC(Cc1ccccc1)C(=O)O (racemic) [DL-Phenylalanine]
Caspase-3 expression (Caspase-3; 3 hours, concentration not given): statistically significant increase
Bcl-2 expression (Bcl-2; [2]): statistically significant decrease

COC1=C(OC)C(=O)C(C/C=C(\C)CC/C=C(\C)CC/C=C(\C)CC/C=C(\C)CC/C=C(\C)CC/C=C(\C)CC/C=C(\C)CC/C=C(\C)CC/C=C(\C)CCC=C(C)C)=C(C)C1=O [compound 31510]
ECAR (HDFa cells; Hypoxia (5.5 mM), 50 μM): 5 mpH/min
ECAR (HDFa cells; Hypoxia (5.5 mM), 100 μM): 5 mpH/min
ECAR (HDFa cells; Hypoxia (22 mM), 50 μM): 6 mpH/min
ECAR (HDFa cells; Hypoxia (22 mM), 100 μM): 8 mpH/min
ECAR (HDFa cells; Normoxia (5.5 mM), 50 μM): 6 mpH/min
ECAR (HDFa cells; Normoxia (5.5 mM), 100 μM): 6 mpH/min
ECAR (HDFa cells; Normoxia (22 mM), 50 μM): 5 mpH/min
ECAR (HDFa cells; Normoxia (22 mM), 100 μM): 5 mpH/min

C[C@@](O)(CCO)CC(=O)O [Mevalonic Acid]
Caspase-3 expression / apoptotic effect (Caspase-3): no significant reduction in Bcl-2 expression or an increase in Caspase-3 expression
Bcl-2 expression (Bcl-2; [3]): no significant reduction

O=C(O)C(=O)Cc1ccc(O)cc1 [4-Hydroxy-phenylpyruvate]
Caspase-3 expression (Caspase-3; 5 μM, 12 hours): significant increase
Caspase-3 expression (Caspase-3; 15 μM, 12 hours): significant increase
Bcl-2 expression (Bcl-2; 5 μM, 24 hours): significant reduction
Bcl-2 expression (Bcl-2; 15 μM, 24 hours): significant reduction

C=C1/C(=C\C=C2/CCC[C@]3(C)[C@@H]([C@H](C)CCCC(C)(C)O)CC[C@@H]23)C[C@@H](O)C[C@@H]1O [Vitamin D3, 1α, 25-dihydroxyvitamin D3]
expression of anti-apoptotic proteins BCL2 and BCL-XL (tumor cells; Deeb et al. 2007): repressing the expression
expression of pro-apoptotic proteins (BAX, BAK, BAD) (tumor cells; Deeb et al. 2007): inducing the expression
gene transcription of p21WAFI/CIPI (tumor cells; Deeb et al. 2007): induce gene transcription
expression of VEGF (tumor cells; Masuda and Jones 2006): inhibit the expression
proliferation of tumor-derived endothelial cells (tumor cells; Masuda and Jones 2006): inhibit the proliferation

N[C@@H](Cc1ccccc1)C(=O)O [L-Phenylalanine]
Bcl-2 expression (Bcl-2; 100 μM, 3 hours): statistically significant decrease
Bcl-2 expression (Bcl-2; 100 μM, 12 hours): statistically significant decrease
